Data published in PubChem BioAssay AID2060325 (Molecular Pharmacology Branch, DTP, NCI, 2025).

Tested on: SK-OV-3 multi-cell spheroids, viability
Experiment: Anticancer human tumor SK-OV-3 cell line growth inhibition [IpAb];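 as to viability, T/C: viability read after seven days of drug exposure; percent of DMSO vehicle control luminescence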
Settings: for IC50: curve of first compound; for viability, T/C: stronger effect = lower value
In short: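 Multi-cell spheroids of 60% tumour cells, 25% HUVEC and 15% MSC in ultra-low-attachment U-bottom wells, treated with agents combined with ipatasertib or abemaciclib. Half-log ranges top out near clinical Cmax, or 10 microM when Cmax is unknown.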

[1] = second compound 0.01 µM, first compound 0.00316 µM
[2] = second compound 0.01 µM, first compound 0.01 µM
[3] = second compound 0.01 µM, first compound 0.0316 µM
[4] = second compound 0.01 µM, first compound 0.1 µM
[5] = second compound 0.0316 µM, first compound 0.00316 µM
[6] = second compound 0.0316 µM, first compound 0.01 µM
[7] = second compound 0.0316 µM, first compound 0.0316 µM
[8] = second compound 0.0316 µM, first compound 0.1 µM
[9] = second compound 0.1 µM, first compound 0.00316 µM
[10] = second compound 0.1 µM, first compound 0.01 µM
[11] = second compound 0.1 µM, first compound 0.0316 µM
[12] = second compound 0.1 µM, first compound 0.1 µM
[13] = second compound 0.316 µM, first compound 0.00316 µM
[14] = second compound 0.316 µM, first compound 0.01 µM
[15] = second compound 0.316 µM, first compound 0.0316 µM
[16] = second compound 0.316 µM, first compound 0.1 µM
[17] = second compound 1 µM, first compound 0.00316 µM
[18] = second compound 1 µM, first compound 0.01 µM
[19] = second compound 1 µM, first compound 0.0316 µM
[20] = second compound 1 µM, first compound 0.1 µM
[21] = second compound 0.01 µM, first compound 0.316 µM
[22] = second compound 0.01 µM, first compound 1 µM
[23] = second compound 0.01 µM, first compound 3.16 µM
[24] = second compound 0.01 µM, first compound 10 µM
[25] = second compound 0.0316 µM, first compound 0.316 µM
[26] = second compound 0.0316 µM, first compound 1 µM
[27] = second compound 0.0316 µM, first compound 3.16 µM
[28] = second compound 0.0316 µM, first compound 10 µM
[29] = second compound 0.1 µM, first compound 0.316 µM
[30] = second compound 0.1 µM, first compound 1 µM
[31] = second compound 0.1 µM, first compound 3.16 µM
[32] = second compound 0.1 µM, first compound 10 µM
[33] = second compound 0.316 µM, first compound 0.316 µM
[34] = second compound 0.316 µM, first compound 1 µM
[35] = second compound 0.316 µM, first compound 3.16 µM
[36] = second compound 0.316 µM, first compound 10 µM
[37] = second compound 1 µM, first compound 0.316 µM
[38] = second compound 1 µM, first compound 1 µM
[39] = second compound 1 µM, first compound 3.16 µM
[40] = second compound 1 µM, first compound 10 µM

Row | SMILES | IC50 (second compound 0.01 µM) | IC50 (second compound 0.0316 µM) | IC50 (second compound 0.1 µM) | IC50 (second compound 0.316 µM) | IC50 (second compound 1 µM) | viability, T/C [3] | viability, T/C [4] | viability, T/C [7] | viability, T/C [8] | viability, T/C [11] | viability, T/C [12] | viability, T/C [15] | viability, T/C [16] | viability, T/C [19] | viability, T/C [20] | viability, T/C [21] | viability, T/C [22] | viability, T/C [25] | viability, T/C [26] | viability, T/C [29] | further results
1 | CC(C)n1nc(-c2ccc3oc(N)nc3c2)c2c(N)ncnc21 + CCN1CCN(Cc2ccc(Nc3ncc(F)c(-c4cc(F)c5nc(C)n(C(C)C)c5c4)n3)nc2)CC1 | 1.65 nM | 1.23 nM | 0.577 nM | 0.381 nM | < 0.316 nM | 8.77% | 7.65% | 11.6% | 7.01% | 10.8% | 7.2% | 14.3% | 9.24% | 15.9% | 13.2% | – | – | – | – | – | viability, T/C (second compound 0.01 µM, first compound 0.000316 µM): 76.7%; viability, T/C (second compound 0.01 µM, first compound 0.001 µM): 59.3%; viability, T/C [1]: 37.8%; viability, T/C [2]: 19%; viability, T/C (second compound 0.0316 µM, first compound 0.000316 µM): 64.4%; viability, T/C (second compound 0.0316 µM, first compound 0.001 µM): 54.8%; viability, T/C [5]: 31.3%; viability, T/C [6]: 16.1%; viability, T/C (second compound 0.1 µM, first compound 0.000316 µM): 55.4%; viability, T/C (second compound 0.1 µM, first compound 0.001 µM): 45.4%; viability, T/C [9]: 28.1%; viability, T/C [10]: 16%; viability, T/C (second compound 0.316 µM, first compound 0.000316 µM): 51.5%; viability, T/C (second compound 0.316 µM, first compound 0.001 µM): 41.4%; viability, T/C [13]: 26.2%; viability, T/C [14]: 18.1%; viability, T/C (second compound 1 µM, first compound 0.000316 µM): 40.7%; viability, T/C (second compound 1 µM, first compound 0.001 µM): 34.2%; viability, T/C [17]: 27.9%; viability, T/C [18]: 21.2%
2 | CC1(C)CCC(CN2CCN(c3ccc(C(=O)NS(=O)(=O)c4ccc(NCC5CCOCC5)c([N+](=O)[O-])c4)c(Oc4cnc5[nH]ccc5c4)c3)CC2)=C(c2ccc(Cl)cc2)C1 + CCN1CCN(Cc2ccc(Nc3ncc(F)c(-c4cc(F)c5nc(C)n(C(C)C)c5c4)n3)nc2)CC1 | 2540 nM | 2450 nM | 722 nM | 316 nM | < 31.6 nM | 92.7% | 96.9% | 78.7% | 74.3% | 60.7% | 59.2% | 55.8% | 53.5% | 44.5% | 47.3% | 90% | 71.8% | 79.6% | 68.5% | 55.2% | viability, T/C [23]: 45.3%; viability, T/C [24]: 18.2%; viability, T/C [27]: 44.7%; viability, T/C [28]: 17.9%; viability, T/C [30]: 48%; viability, T/C [31]: 34.4%; viability, T/C [32]: 14.3%; viability, T/C [33]: 52.7%; viability, T/C [34]: 39.9%; viability, T/C [35]: 31.5%; viability, T/C [36]: 10.4%; viability, T/C [37]: 42.3%; viability, T/C [38]: 38.3%; viability, T/C [39]: 31.9%; viability, T/C [40]: 12.9%
3 | CCCS(=O)(=O)Nc1ccc(F)c(C(=O)c2c[nH]c3ncc(-c4ccc(Cl)cc4)cc23)c1F + CCN1CCN(Cc2ccc(Nc3ncc(F)c(-c4cc(F)c5nc(C)n(C(C)C)c5c4)n3)nc2)CC1 | 9390 nM | 5140 nM | 1240 nM | 822 nM | < 31.6 nM | 95.1% | 93.5% | 70.1% | 69.7% | 55.3% | 59.5% | 53.2% | 55.7% | 41.2% | 44.4% | 89.1% | 85.5% | 70.3% | 68.1% | 57.4% | viability, T/C [23]: 80.3%; viability, T/C [24]: 48%; viability, T/C [27]: 65.3%; viability, T/C [28]: 29.3%; viability, T/C [30]: 51.7%; viability, T/C [31]: 39.6%; viability, T/C [32]: 20.1%; viability, T/C [33]: 52.9%; viability, T/C [34]: 46.5%; viability, T/C [35]: 44.1%; viability, T/C [36]: 25.4%; viability, T/C [37]: 48.1%; viability, T/C [38]: 38.6%; viability, T/C [39]: 36.8%; viability, T/C [40]: 24.2%
4 | COc1c(OCCCN2CCOCC2)ccc2c3n(c(=NC(=O)c4cnc(N)nc4)nc12)CCN3 + CCN1CCN(Cc2ccc(Nc3ncc(F)c(-c4cc(F)c5nc(C)n(C(C)C)c5c4)n3)nc2)CC1 | 6.39 nM | 4.18 nM | < 3.16 nM | < 3.16 nM | < 3.16 nM | 12.6% | 7.16% | 9.9% | 6.3% | 10.4% | 5.9% | 9.73% | 6.47% | 10.2% | 6.83% | 5.33% | 3.04% | 5% | 2.92% | 5.13% | viability, T/C [1]: 68%; viability, T/C [2]: 38.6%; viability, T/C [5]: 56.2%; viability, T/C [6]: 30.5%; viability, T/C [9]: 43%; viability, T/C [10]: 23.7%; viability, T/C [30]: 2.59%; viability, T/C [13]: 42.1%; viability, T/C [14]: 22.4%; viability, T/C [33]: 5.55%; viability, T/C [34]: 3.33%; viability, T/C [17]: 40.2%; viability, T/C [18]: 23.2%; viability, T/C [37]: 5.51%; viability, T/C [38]: 4.14%
5 | Cc1nc(NC(=O)N2CCCC2C(N)=O)sc1-c1ccnc(C(C)(C)C(F)(F)F)c1 (stereo not given) + CCN1CCN(Cc2ccc(Nc3ncc(F)c(-c4cc(F)c5nc(C)n(C(C)C)c5c4)n3)nc2)CC1 | 239 nM | 111 nM | 33.4 nM | < 31.6 nM | < 31.6 nM | 82.9% | 70% | 66.5% | 52.3% | 50.1% | 40.5% | 43.2% | 37.1% | 39.5% | 34.7% | 43.1% | 20.7% | 31.7% | 17.5% | 23.9% | viability, T/C [23]: 9.47%; viability, T/C [24]: 5.17%; viability, T/C [27]: 8.57%; viability, T/C [28]: 4.47%; viability, T/C [30]: 15.6%; viability, T/C [31]: 9.26%; viability, T/C [32]: 4.48%; viability, T/C [33]: 28.4%; viability, T/C [34]: 15.7%; viability, T/C [35]: 7.93%; viability, T/C [36]: 5.24%; viability, T/C [37]: 23.9%; viability, T/C [38]: 15.9%; viability, T/C [39]: 9.43%; viability, T/C [40]: 4.78%
